Assay results: patent publication US11325899B2, “Benzofurane and benzothiophene derivatives as PGE2 receptor modulators” (IDORSIA PHARMACEUTICALS LTD, priority 2017, dated 2022)

What follows are molecules tested against T1, EP2 receptor (Homo sapiens, UniProt P43116) (assay: hEP2 cAMP assay (SF295 glioblastoma cells, HTRF cAMP, PGE2 stimulation)). Settings: antagonistic activity.
T1 construct: SF295 glioblastoma cells express high endogenous EP2 and no EP4; host or cells: SF295 glioblastoma cells
Assay type: cell-based
Procedure, shortened: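 HTRF cAMP readout gave % cAMP relative to DMSO, fitted to IC50 with duplicate points. Compounds were preincubated 45 min at room temperature with EP2-expressing, EP4-negative SF295 cells in IBMX (2 mM)-containing buffer before a 30 min challenge with PGE2 at 75 nM final, its EC80.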

T1 sequence (P43116 whole entry): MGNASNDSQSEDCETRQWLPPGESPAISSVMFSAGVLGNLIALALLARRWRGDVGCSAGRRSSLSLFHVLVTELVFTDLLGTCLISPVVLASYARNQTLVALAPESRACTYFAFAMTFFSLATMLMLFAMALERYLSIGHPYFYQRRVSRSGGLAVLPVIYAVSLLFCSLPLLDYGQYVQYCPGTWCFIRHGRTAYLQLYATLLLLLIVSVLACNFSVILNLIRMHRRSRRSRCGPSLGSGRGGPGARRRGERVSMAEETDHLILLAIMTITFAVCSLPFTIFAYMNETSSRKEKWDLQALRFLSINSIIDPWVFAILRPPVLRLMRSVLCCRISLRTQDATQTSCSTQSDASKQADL

| Structure (SMILES) | IC50 |
| --- | --- |
| CSc1cc(-c2cc(NCCc3c(C)sc4c(C)cc(F)cc34)ncn2)ccc1C(=O)O [Example 17, 4-{6-[2-(5-Fluoro-2,7-dimethyl-benzo[b]thiophen-3-yl)-ethylamino]-pyrimidin-4-yl}-2-methylsulfanyl-benzoic acid] | 9 nM |
| CCc1oc2c(C)cc(F)cc2c1CCNc1cc(-c2ccc(C(=O)O)c(SC)c2)ncn1 [Example 22, 4-{6-[2-(2-Ethyl-5-fluoro-7-methyl-benzofuran-3-yl)-ethylamino]-pyrimidin-4-yl}-2-methylsulfanyl-benzoic acid] | 172 nM |
| Cc1sc2c(C)cc(F)cc2c1CCNc1cc(-c2ccc(CC(=O)O)c(OC3CC3)c2)ncn1 [Example 196, (2-Cyclopropoxy-4-{6-[2-(5-fluoro-2,7-dimethyl-benzo[b]thiophen-3-yl)-ethylamino]-pyrimidin-4-yl}-phenyl)-acetic acid] | 50 nM |
| CSc1cc(-c2cc(NCCc3c(C)sc4c(Cl)cc(F)cc34)ncn2)ccc1C(=O)O [Example 23, 4-{6-[2-(7-Chloro-5-fluoro-2-methyl-benzo[b]thiophen-3-yl)-ethylamino]-pyrimidin-4-yl}-2-methylsulfanyl-benzoic acid] | 27 nM |
| CCOc1cc(-c2cc(NCCc3c(C)sc4c(C)c(F)ccc34)ncn2)ccc1C(=O)O [Example 62, 2-Ethoxy-4-{6-[2-(6-fluoro-2,7-dimethyl-benzo[b]thiophen-3-yl)-ethylamino]-pyrimidin-4-yl}-benzoic acid] | 14 nM |
| CCOc1cc(-c2cc(NCCc3c(C)sc4c(C)cccc34)ncn2)sc1C(=O)O [Example 36, 5-{6-[2-(2,7-Dimethyl-benzo[b]thiophen-3-yl)-ethylamino]-pyrimidin-4-yl}-3-ethoxy-thiophene-2-carboxylic acid] | 4 nM |
| Cc1oc2ccccc2c1CCNc1cc(-c2ccc(C(=O)O)c(SC(C)C)c2)ncn1 [Example 92, 2-Isopropylsulfanyl-4-{6-[2-(2-methyl-benzofuran-3-yl)-ethylamino]-pyrimidin-4-yl}-benzoic acid] | 6 nM |
| CCOc1cc(-c2cc(NCCc3c(C)sc4c(Cl)ccc(Cl)c34)ncn2)ccc1C(=O)O [Example 63, 4-{6-[2-(4,7-Dichloro-2-methyl-benzo[b]thiophen-3-yl)-ethylamino]-pyrimidin-4-yl}-2-ethoxy-benzoic acid] | 64 nM |
| CCOc1cc(-c2cc(NCCc3c(C)sc4c(C)cccc34)ncn2)ccc1C(=O)O [Example 60, 4-{6-[2-(2,7-Dimethyl-benzo[b]thiophen-3-yl)-ethylamino]-pyrimidin-4-yl}-2-ethoxy-benzoic acid] | 15 nM |
| Cc1sc2c(C)cccc2c1CCNc1cc(-c2ccc3cc(C(=O)O)oc3c2)ncn1 [Example 77, 6-{6-[2-(2,7-Dimethyl-benzo[b]thiophen-3-yl)-ethylamino]-pyrimidin-4-yl}-benzofuran-2-carboxylic acid] | 8 nM |
| Cc1sc2c(C)cccc2c1CCNc1cc(-c2ccc(C(=O)O)c(SC(C)C)c2)ncn1 [Example 90, 4-{6-[2-(2,7-Dimethyl-benzo[b]thiophen-3-yl)-ethylamino]-pyrimidin-4-yl}-2-isopropylsulfanyl-benzoic acid] | 35 nM |
| CCOc1cc(-c2cc(NCCc3csc4ccccc34)ncn2)sc1C(=O)O [Example 33, 5-[6-(2-Benzo[b]thiophen-3-yl-ethylamino)-pyrimidin-4-yl]-3-ethoxy-thiophene-2-carboxylic acid] | 17 nM |
| CCOc1cc(-c2cc(NCCc3c(C)sc4c(OC)ccc(Cl)c34)ncn2)ccc1C(=O)O [Example 57, 4-{6-[2-(4-Chloro-7-methoxy-2-methyl-benzo[b]thiophen-3-yl)-ethylamino]-pyrimidin-4-yl}-2-ethoxy-benzoic acid] | 44 nM |
| CCOc1cc(-c2cc(NCCc3c(C)sc4c(Cl)cc(F)cc34)ncn2)ccc1C(=O)O [Example 65, 4-{6-[2-(7-Chloro-5-fluoro-2-methyl-benzo[b]thiophen-3-yl)-ethylamino]-pyrimidin-4-yl}-2-ethoxy-benzoic acid] | 15 nM |
| CSc1cc(-c2cc(NCCc3c(C)sc4c(C)cccc34)ncn2)ccc1C(=O)O [Example 14, 4-{6-[2-(2,7-Dimethyl-benzo[b]thiophen-3-yl)-ethylamino]-pyrimidin-4-yl}-2-methylsulfanyl-benzoic acid] | 6 nM |
| CCOc1cc(-c2cc(NCCc3c(C)oc4c(Cl)cccc34)ncn2)ccc1C(=O)O [Example 68, 4-{6-[2-(7-Chloro-2-methyl-benzofuran-3-yl)-ethylamino]-pyrimidin-4-yl}-2-ethoxy-benzoic acid] | 39 nM |
| Cc1cc(-c2cc(NCCc3c(C)sc4c(C)cccc34)ncn2)sc1C(=O)O [Example 3, 5-{6-[2-(2,7-Dimethyl-benzo[b]thiophen-3-yl)-ethylamino]-pyrimidin-4-yl}-3-methyl-thiophene-2-carboxylic acid] | 18 nM |

The remaining molecules from weak to strong by IC50, led by results:

| IC50 | Structure (SMILES) |
| --- | --- |
| 75 nM | CCOc1cc(-c2cc(NCCc3c(C)sc4c(C)cc(F)cc34)ncn2)ccc1-c1cc(O)no1 [Example 202, 5-(2-Ethoxy-4-{6-[2-(5-fluoro-2,7-dimethyl-benzo[b]thiophen-3-yl)-ethylamino]-pyrimidin-4-yl}-phenyl)-isoxazol-3-ol [tautomeric form: 5-(2-ethoxy-4-(6-((2-(5-fluoro-2,7-dimethylbenzo[b]thiophen-3-yl)ethyl)amino)pyrimidin-4-yl)phenyl)isoxazol-3(2H)-one]] |
| 60 nM | CCOc1cc(-c2cc(NCCc3c(C)sc4c(C)ccc(F)c34)ncn2)ccc1C(=O)O [Example 61, 2-Ethoxy-4-{6-[2-(4-fluoro-2,7-dimethyl-benzo[b]thiophen-3-yl)-ethylamino]-pyrimidin-4-yl}-benzoic acid] |
| 26 nM | CSc1cc(-c2cc(NCCc3c(C)sc4c(Cl)ccc(Cl)c34)ncn2)ccc1C(=O)O [Example 20, 4-{6-[2-(4,7-Dichloro-2-methyl-benzo[b]thiophen-3-yl)-ethylamino]-pyrimidin-4-yl}-2-methylsulfanyl-benzoic acid] |
| 15 nM | CCCSc1cc(-c2cc(NCCc3c(C)sc4c(C)cccc34)ncn2)ccc1C(=O)O [Example 87, 4-{6-[2-(2,7-Dimethyl-benzo[b]thiophen-3-yl)-ethylamino]-pyrimidin-4-yl}-2-propylsulfanyl-benzoic acid] |
| 13 nM | CSc1cc(-c2cc(NCCc3c(C)sc4c(C)cccc34)ncn2)cc(Cl)c1C(=O)O [Example 50, 2-Chloro-4-{6-[2-(2,7-dimethyl-benzo[b]thiophen-3-yl)-ethylamino]-pyrimidin-4-yl}-6-methylsulfanyl-benzoic acid] |
| 10 nM | CCOc1cc(-c2cc(NCCc3c(C)oc4c(OC)cc(F)c(F)c34)ncn2)sc1C(=O)O [Example 31, 5-{6-[2-(4,5-Difluoro-7-methoxy-2-methyl-benzofuran-3-yl)-ethylamino]-pyrimidin-4-yl}-3-ethoxy-thiophene-2-carboxylic acid] |
| 2 nM | CCOc1cc(-c2cc(NCCc3c(C)oc4c(Cl)cccc34)ncn2)sc1C(=O)O [Example 35, 5-{6-[2-(7-Chloro-2-methyl-benzofuran-3-yl)-ethylamino]-pyrimidin-4-yl}-3-ethoxy-thiophene-2-carboxylic acid] |
| 1 nM | CSc1cc(-c2cc(NCCc3c(C)oc4ccccc34)ncn2)ccc1C(=O)O [Example 18, 4-{6-[2-(2-Methyl-benzofuran-3-yl)-ethylamino]-pyrimidin-4-yl}-2-methylsulfanyl-benzoic acid] |
